Test system: MDA-MB-231-luc-D3H2LN cell line
Assay: tumor cell apoptosis, proliferation, invasion, migration and cell cycle
Type: cell-based, human
Conditions: low-dose doxorubicin
From the text: 21.6±0.5-nm dextran coated magnetic nanoparticles were conjugated to 8±0.7 LNA antagomirs targeting miRNA-10b, (Exiqon, Woburn, MA) (FIG. 1A). The MN-anti-miR10b therapeutic was functional in the human lymph-node metastatic MDA-MB-231-luc-D3H2LN cell line (Perkin Elmer, Hopkinton MA). […] In order to assess the therapeutic potential of this methodology, the effect of miR-10b inhibition on tumor cell apoptosis, proliferation, invasion and migration was investigated.
It was also hypothesized that by co-administering a low dose of a cytotoxic chemotherapeutic (e.g., doxorubicin), the effectiveness of the therapeutic could be amplified, leading not only to inhibition of tumor growth, but regression and, possibly, elimination of metastasis. […] Further proof for this hypothesis came from experiments in which we attempted to generate a miR-10b knock-out subline derived from the MDA-MB-231-luc-D3H2LN cell line (FIG. 3A). We observed that within 24 h of transfection with the knock-out vector set (TALEN5 L+R), the cells acquired a spindle-shaped conformation and began to detach. By 72 h of transfection, there were no viable cells (FIG. 3B).

Structure (SMILES): COc1cccc2c1C(=O)c1c(O)c3c(c(O)c1C2=O)C[C@@](O)(C(=O)CO)C[C@@H]3O[C@H]1C[C@H](N)[C@H](O)[C@H](C)O1 [doxorubicin]
- effect on the cell cycle (flow cytometry): induced polyploidy and G2/M arrest

Source: US20230398243A1, “THERAPEUTIC, RADIOLABELED NANOPARTICLES AND METHODS OF USE THEREOF” (The General Hospital Corporation, priority 2020, published 2023)
